The source of these data is US8217029B2, “Oxazolidinone antibiotics” (Actelion Pharmaceuticals Ltd, priority 2007, dated 2012).

SMILES strings stand for the structures. Values after ≈ are worked out from the molar mass of the structure shown.

This test deals with S aureus A798. In words: Minimal inhibitory concentration (MIC), microdilution method in cation-adjusted Mueller-Hinton Broth following NCCLS guidelines. It counts as cell-based. The following applies: pH of test medium 7.2-7.3. The method, then: These assays have been performed following the description given in “Methods for dilution Antimicrobial Susceptibility Tests for Bacteria that Grow Aerobically, 4th ed.; Approved standard: NCCLS Document M7-A4; National Committee for Clinical Laboratory Standards Villanova, Pa., USA, 1997”. Minimal inhibitory concentrations (MICs; mg/l) were determined in cation-adjusted Mueller-Hinton Broth by a microdilution method following NCCLS guidelines (National Committee for Clinical Laboratory Standards. Methods for Dilution Antimicrobial Susceptibility). The pH of the test medium was 7.2-7.3. All Example compounds were tested against several Gram positive and Gram negative bacteria.
For orientation: In broth dilution the organism is exposed to a series of concentrations in liquid medium.
What is called MIC is the smallest concentration in the dilution series that meets the test's criterion for growth inhibition. On to `COc1ccc2nc(C)cc(N3CC(NC[C@@H]4CN(c5ccc6c(c5)NC(=O)CS6)C(=O)O4)C3)c2c1` [Example 131, 6-((R)-5-{[1-(6-Methoxy-2-methyl-quinolin-4-yl)-azetidin-3-ylamino]-methyl}-2-oxo-oxazolidin-3-yl)-4H-benzo[1,4]thiazin-3-one], for which the MIC is ≤ 0.031 µg/mL. In the case of `N#Cc1ccc2nccc(N3CCC(NC[C@@H]4CN(c5ccc6c(c5)NC(=O)CS6)C(=O)O4)CC3)c2c1` [Example 180, 4-(4-{[(R)-2-oxo-3-(3-oxo-3,4-dihydro-2H-benzo[1,4]thiazin-6-yl)-oxazolidin-5-ylmethyl]-amino}-piperidin-1-yl)-quinoline-6-carbonitrile] it was ≤ 0.031 µg/mL; in that of `COc1ccc2ncc(F)c(N3CCC(NC[C@@H]4CN(c5ccc6c(c5)NC(=O)CO6)C(=O)O4)CC3)c2n1` [Example 123, 6-((R)-5-{[1-(3-Fluoro-6-methoxy-[1,5]naphthyridin-4-yl)-piperidin-4-ylamino]-methyl}-2-oxo-oxazolidin-3-yl)-4H-benzo[1,4]oxazin-3-one], ≤ 0.031 µg/mL.

As for `COc1ccc2nccc(N3CCN(C[C@@H]4CN(c5ccc(C)c(Br)c5)C(=O)O4)CC3)c2n1` [Example 32, (R)-3-(3-Bromo-4-methyl-phenyl)-5-[4-(6-methoxy-[1,5]naphthyridin-4-yl)-piperazin-1-ylmethyl]-oxazolidin-2-one], the MIC is ≤ 0.031 µg/mL. In the case of `COc1ccc2nccc(N3CC[C@@H](NC(=O)[C@@H]4CN(c5ccc(C)c(F)c5)C(=O)O4)C3)c2n1` [Example 62, (S)-3-(3-Fluoro-4-methyl-phenyl)-2-oxo-oxazolidine-5-carboxylic acid [(R)-1-(6-methoxy-[1,5]naphthyridin-4-yl)-pyrrolidin-3-yl]-amide] it was ≤ 0.031 µg/mL; in that of `COc1ccc2ncc(F)c(N3CC(NC[C@@H]4CN(c5ccc6c(c5)NC(=O)CO6)C(=O)O4)C3)c2n1` [Example 45, 6-((R)-5-{[1-(3-Fluoro-6-methoxy-[1,5]naphthyridin-4-yl)-azetidin-3-ylamino]-methyl}-2-oxo-oxazolidin-3-yl)-4H-benzo[1,4]oxazin-3-one], ≤ 0.031 µg/mL; in that of `CCOC(=O)[C@@H]1CN(c2ccnc3ccc(OC)nc23)C[C@H]1NC[C@H]1CN(c2ccc3c(c2)NC(=O)CS3)C(=O)O1` (relative stereo) [Example 73, (3R*,4S*)-1-(6-Methoxy-[1,5]naphthyridin-4-yl)-4-{[(S)-2-oxo-3-(3-oxo-3,4-dihydro-2H-benzo[1,4]thiazin-6-yl)-oxazolidin-5-ylmethyl]amino}-pyrrolidine-3-carboxylic acid ethyl ester], ≤ 0.031 µg/mL. The compound `COc1ccc2nccc(N3CC[C@@H](NC[C@@H]4CN(c5ccc(C)c(F)c5)C(=O)O4)C3)c2n1` [Example 68, (R)-3-(3-Fluoro-4-methyl-phenyl)-5-{[(R)-1-(6-methoxy-[1,5]naphthyridin-4-yl)-pyrrolidin-3-ylamino]-methyl}-oxazolidin-2-one] registered an MIC of 0.063 µg/mL (≈ 0.14 µM). In the case of `COc1ccc2ccc(F)c(N3CC(NC[C@@H]4CN(c5ccc6c(c5)NC(=O)CS6)C(=O)O4)C3)c2n1` [Example 159, 6-((R)-5-{[1-(7-Fluoro-2-methoxy-quinolin-8-yl)-azetidin-3-ylamino]-methyl}-2-oxo-oxazolidin-3-yl)-4H-benzo[1,4]thiazin-3-one] it was ≤ 0.031 µg/mL; in that of `COc1ccc2nccc(N3CCN(C[C@@H]4CN(c5ccc(OC)c(Cl)c5)C(=O)O4)CC3)c2n1` [Example 28, (R)-3-(3-Chloro-4-methoxy-phenyl)-5-[4-(6-methoxy-[1,5]naphthyridin-4-yl)-piperazin-1-ylmethyl]-oxazolidin-2-one], 1 µg/mL (≈ 2.07 µM).

As to `COc1ccc2ncc(F)c(N3CCC(NC[C@@H]4CN(c5ccc6c(c5)NC(=O)CS6)C(=O)O4)CC3)c2n1` [Example 122, 6-((R)-5-{[1-(3-Fluoro-6-methoxy-[1,5]naphthyridin-4-yl)-piperidin-4-ylamino]-methyl}-2-oxo-oxazolidin-3-yl)-4H-benzo[1,4]thiazin-3-one], the MIC was ≤ 0.031 µg/mL. The compound `COc1ccc2nccc(N3CC(C(=O)NC[C@@H]4CN(c5ccc(C)c(F)c5)C(=O)O4)C3)c2n1` [Example 148, 1-(6-Methoxy-[1,5]naphthyridin-4-yl)-azetidine-3-carboxylic acid [(R)-3-(3-fluoro-4-methyl-phenyl)-2-oxo-oxazolidin-5-ylmethyl]-amide] came in with an MIC of 0.5 µg/mL (≈ 1.07 µM).

As to `COc1ccc2nccc(N3CC(N(C)C[C@@H]4CN(c5ccc(C)c(C)c5)C(=O)O4)C3)c2n1` [Example 138, (R)-3-(3,4-Dimethyl-phenyl)-5-({[1-(6-methoxy-[1,5]naphthyridin-4-yl)-azetidin-3-yl]-methyl-amino}-methyl)-oxazolidin-2-one], the minimum inhibitory concentration (MIC) was ≤ 0.031 µg/mL. Consider `COc1ccc2nccc(N3CC[C@H](NC[C@@H]4CN(c5ccc(C)c(F)c5)C(=O)O4)C3)c2n1` [Example 67, (R)-3-(3-Fluoro-4-methyl-phenyl)-5-{[(S)-1-(6-methoxy-[1,5]naphthyridin-4-yl)-pyrrolidin-3-ylamino]-methyl}-oxazolidin-2-one], for which the MIC is 0.063 µg/mL (≈ 0.14 µM). On to `COc1ccc2nccc(N3CC(NC(=O)C[C@@H]4CN(c5ccc6c(c5)NC(=O)CS6)C(=O)O4)C3)c2n1` [Example 115, N-[1-(6-Methoxy-[1,5]naphthyridin-4-yl)-azetidin-3-yl]-2-[(R)-2-oxo-3-(3-oxo-3,4-dihydro-2H-benzo[1,4]thiazin-6-yl)-oxazolidin-5-yl]-acetamide], for which the MIC came to 1 µg/mL (≈ 1.92 µM). In the case of `COc1ccc2nccc(N3CCC(NC[C@@H]4CN(c5ccc(OC(F)F)cc5)C(=O)O4)CC3)c2n1` [Example 185, (R)-3-(4-Difluoromethoxy-phenyl)-5-{[1-(6-methoxy-[1,5]naphthyridin-4-yl)-piperidin-4-ylamino]-methyl}-oxazolidin-2-one] it was 0.5 µg/mL (≈ 1 µM); in that of `COc1ccc2nccc(N3CC(NC[C@@H]4CN(c5ccc6c(c5)NC(=O)CS6)C(=O)O4)C3)c2n1` [Example 53, 6-((R)-5-{[1-(6-Methoxy-[1,5]naphthyridin-4-yl)-azetidin-3-ylamino]-methyl}-2-oxo-oxazolidin-3-yl)-4H-benzo[1,4]thiazin-3-one], ≤ 0.031 µg/mL; in that of `O=C1O[C@H](CN2CCN(c3ccnc4ccccc34)CC2)CN1c1ccc2c(c1)OCCO2` [Example 99, (R)-3-(2,3-Dihydro-benzo[1,4]dioxin-6-yl)-5-(4-quinolin-4-yl-piperazin-1-ylmethyl)-oxazolidin-2-one], ≤ 0.031 µg/mL. In the case of `CCCc1ccc(N2C[C@@H](CN3CCN(c4ccnc5ccc(OC)nc45)CC3)OC2=O)cc1` [Example 25, (R)-5-[4-(6-Methoxy-[1,5]naphthyridin-4-yl)-piperazin-1-ylmethyl]-3-(4-propyl-phenyl)-oxazolidin-2-one] it was ≤ 0.031 µg/mL; in that of `COc1ccc2nccc(N3CCN(C[C@@H]4CN(c5ccccc5)C(=O)O4)CC3)c2n1` [Example 12, (R)-5-[4-(6-Methoxy-[1,5]naphthyridin-4-yl)-piperazin-1-ylmethyl]-3-phenyl-oxazolidin-2-one], ≤ 0.031 µg/mL. `COc1ccc2nccc(N3CC(NC[C@@H]4CN(c5ccc(OC(F)F)cc5)C(=O)O4)C3)c2n1` [Example 176, (R)-3-(4-Difluoromethoxy-phenyl)-5-{[1-(6-methoxy-[1,5]naphthyridin-4-yl)-azetidin-3-ylamino]-methyl}-oxazolidin-2-one]: the MIC was ≤ 0.031 µg/mL. In the case of `COc1ccc2nccc(N3CCN(C[C@@H]4CN(c5ccc(C)c(C)c5)C(=O)O4)CC3)c2n1` [Example 27, (R)-3-(3,4-Dimethyl-phenyl)-5-[4-(6-methoxy-[1,5]naphthyridin-4-yl)-piperazin-1-ylmethyl]-oxazolidin-2-one] it was ≤ 0.031 µg/mL; in that of `COc1ccc2nccc(N3CCN(CC4CN(c5cc6c(nn5)OCCO6)C(=O)O4)CC3)c2n1` (racemic) [Example 110, (RS)-3-(6,7-Dihydro-[1,4]dioxino[2,3-c]pyridazin-3-yl)-5-[4-(6-methoxy-[1,5]naphthyridin-4-yl)-piperazin-1-ylmethyl]-oxazolidin-2-one], 8 µg/mL (≈ 16.7 µM). In the case of `O=C1CSc2ccc(N3C[C@@H](CN[C@@H]4CCN(c5ccnc6ccc(F)cc56)C4)OC3=O)cc2N1` [Example 177, 6-((R)-5-{[(R)-1-(6-Fluoro-quinolin-4-yl)-pyrrolidin-3-ylamino]-methyl}-2-oxo-oxazolidin-3-yl)-4H-benzo[1,4]thiazin-3-one] it was 0.125 µg/mL (≈ 0.253 µM); in that of `COc1cnc2cccc(N3CC(CNC[C@@H]4CN(c5ccc6c(c5)NC(=O)CS6)C(=O)O4)C3)c2c1` [Example 163, 6-[(R)-5-({[1-(3-Methoxy-quinolin-5-yl)-azetidin-3-ylmethyl]-amino}-methyl)-2-oxo-oxazolidin-3-yl]-4H-benzo[1,4]thiazin-3-one], ≤ 0.031 µg/mL; in that of `COc1ccc2nccc(N3CCC(CNC(=O)[C@@H]4CN(c5ccc6c(c5)OCCO6)C(=O)O4)C3)c2n1` (mixture of isomers) [Example 81, (S)-3-(2,3-Dihydro-benzo[1,4]dioxin-6-yl)-2-oxo-oxazolidine-5-carboxylic acid [(RS)-1-(6-methoxy-[1,5]naphthyridin-4-yl)-pyrrolidin-3-ylmethyl]-amide], 0.125 µg/mL. In the case of `COc1ccc2nccc(N3CCN(CC4CN(c5ccc6c(c5)OCCO6)C(=O)O4)CC3)c2n1` (racemic) [Example 8, (RS)-3-(2,3-Dihydro-benzo[1,4]dioxin-6-yl)-5-[4-(6-methoxy-[1,5]naphthyridin-4-yl)-piperazin-1-ylmethyl]-oxazolidin-2-one] it was ≤ 0.031 µg/mL; in that of `COc1ccc2nccc(N3CCC(CN(C)C[C@@H]4CN(c5ccc6c(c5)NC(=O)CS6)C(=O)O4)C3)c2n1` (mixture of isomers) [Example 117, 6-[(R)-5-({[(RS)-1-(6-Methoxy-[1,5]naphthyridin-4-yl)-pyrrolidin-3-ylmethyl]-methyl-amino}-methyl)-2-oxo-oxazolidin-3-yl]-4H-benzo[1,4]thiazin-3-one], ≤ 0.031 µg/mL.
